Data taken from patent US20260250247A1, “NOVEL INDOLINE DERIVATIVE AND USE THEREOF” (CK REGEON INC., priority 2023, published 2026).
Where a name gives a salt, the structure may show the parent alone.

Legend:
[1] = biological target: CXXC5-Dvl interaction (PDZ domain of Dvl (dishevelled) protein / PTD-DBM-FITC); test: CXXC5-Dvl binding inhibition, competition of PTD-DBM-FITC on plate-bound Dvl PDZ domain; details: purified Dvl PDZ domain 5 μg/mL, 10 μM PTD-DBM-FITC, compounds 0.001-100 μM, FITC fluorescence
Method: 5 μg/mL of the purified PDZ domain ofDvl (dishevelled) protein was attached to the bottom of a 96-well black immunoplate and left in a chamber at 4° C. for one day. The next day, each well was washed with PBS and 10 μM PTD-DBM-FITC was added. After incubation at room temperature for 3 hours, each well was washed with PBS. Each well was treated with the indoline derivatives at various concentrations (100, 10, 1, 0.1, 0.01, and 0.001 μM) in 100 μL of PBS. After washing with a buffer, fluorescence was measured by FITC using a microplate reader. A competition binding curve showing the degree of CXXC5-Dvl PPI inhibition was constructed using the GraphPad Prism software, and the IC50 value was calculated. […] CK090), and the intermediate compound 5-cyanoindirubin as controls.

3T3-L1 pre-adipocytes = test: Inhibition of adipocyte differentiation and lipid accumulation, Oil Red O; assay type: cell-based; details: Mus musculus, 192 h; 3T3-L1, compound 1 μM, MDI-induced differentiation for 8 days, Oil Red O eluted, absorbance 544 nm; read-out: lipid accumulation rate
Method: 3T3-L1 cells were seeded in a 6-well plate at a density of […] cells per well. The cells were grown to 100% confluency in Dulbecco's modified Eagle's medium (DMEM) supplemented with 10% bovine calf serum (BCS; GIBCO). Two days after reaching 100% confluency, differentiation was induced with or without treatment with the indoline compound at a concentration of 1 μM in DMEM containing 10% fetal bovine serum (FBS; GIBCO) and MDI (520 μM methylisobutylxanthine (IBMX; Sigma-Aldrich), 1 μM dexamethasone (Sigma-Aldrich), and 5 μM insulin (GIBCO)). On day 3, the medium was replaced with DMEM containing 10% FBS and 5 μM insulin with or without the indoline compound, and then with a fresh identical medium every 2 days. After differentiation for 8 days, the culture medium was removed, and the cells were washed with PBS and then fixed with 10% formaldehyde for 1 hour. After removing the 10% formaldehyde, the cells were washed thoroughly with distilled water. After that, 60% isopropanol was added and immediately then removed. After washing with distilled water, lipid droplets were stained with an Oil Red O dye solution for 20 minutes and then washed with distilled water. The cells were counterstained with Mayer's hematoxylin. Oil Red O images were visualized using a bright-field microscope (Nikon TE-2000U). To quantify the accumulated lipids, Oil Red O was eluted by adding isopropanol, and absorbance was measured spectrophotometrically at 544 nm using a multi-plate reader.
As A3051 (KY19382) and A3334, self-developed and synthesized materials were used. As BIO, or GSK 3 Inhibitor IX, also known as 6-bromoindirubin-3′-oxime, HY-10580 was purchased commercially.
In FIG. 2, the undifferentiated group (Un Diff) refers to undifferentiated adipocytes, or preadipocytes that had not been induced to differentiate, and the differentiated group (Diff) refers to fully differentiated adipocytes.

[2] = tested on: lipid droplets / PPARγ in liver tissue; test: Liver Oil Red O staining and PPARγ immunohistochemistry in MASH mice; assay type: in vivo, C57BL/6N mice; details: 25 mg/kg/day orally for 4 weeks
Method: (§1) Five-week-old wild-type male C57BL/6N mice were purchased from Orient Bio Co., Ltd. They were allowed to acclimate to the laboratory environment for one week. Mice weighing 18-20 g on average were used in the experiment. To ensure ethical and scientific validity and efficient management of animal experiments, the experiment was conducted with the approval of the Institutional Review Board (IACUC-A-202205-1472-01) of Severance Hospital, Yonsei University College of Medicine.
(§2) The mice were divided into a normal group (NCD) and a high-fat diet group (HFD). The normal group (NCD) was fed a normal chow diet (NCD, Teklad Global 18% protein rodent diet), and the high-fat diet group (HFD) was fed a high-fat diet (HFD, D12492) in which fat accounted for 60% of the total calories, for 8 weeks.
(§3) Mice induced with metabolic dysfunction-associated steatohepatitis (MASH) (hereinafter, referred to as MASH or MASH group) were prepared by administering CCl4 intraperitoneally twice a week for 4 weeks after feeding the high-fat diet (HFD) for 8 weeks. The […] was diluted with corn oil at a ratio of 1:19 and injected at a dosage of 2 mL/kg. The normal group (NOD) was administered the same volume of physiological saline.
(§4) The animals were divided into 7 groups, each with 10 animals.
It was investigated whether the accumulation of triglycerides in the liver is suppressed effectively. For this purpose, liver tissue was extracted from each group, and it was prepared into 10-μm thick cryosections, which were then stained with Oil Red O. Details are as follows. After preparing the 7 groups, the animals were euthanized using carbon dioxide and the liver tissues were extracted. A certain area of the extracted liver tissue was cryosectioned to 10 μm thickness, fixed in 4% neutral paraformaldehyde for 20 minutes at room temperature, and washed with 70% isopropanol (Duksan Pure Chemicals). After staining with the Oil Red O (Sigma-Aldrich) reagent for 20 minutes, the sections were washed thoroughly three times with distilled water. The tissue was counterstained with Mayer's hematoxylin. Then, Oil Red O staining images were visualized using a bright-field microscope (Nikon TE-2000U).
After preparing the 7 groups, the animals were sacrificed using carbon dioxide and the liver tissues were extracted. The extracted tissues were fixed in 4% neutral paraformaldehyde and embedded in paraffin to prepare sections. The paraffin sections were cut to 4-μm thickness, deparaffinized, and then rehydrated. For antigen exposure, slides were autoclaved in a 10 mM sodium citrate buffer (pH 6.0). To block endogenous peroxidase activity prior to peroxidase IHC analysis, the tissues were incubated with 0.3% H2O2 for 10 minutes. The incubated sections were treated with phosphate-buffered saline (PBS) containing 10% NGS and 0.3% Tween-20 for 1 hour at room temperature, treated with primary antibodies of anti-PPARγ (1:50; Abcam), and incubated overnight at 4° C.
The sections treated with the primary antibodies were washed with PBS and incubated with biotinylated anti-mouse (1:400; Dako) or anti-rabbit (1:400; Dako) secondary antibodies for 1 hour at room temperature. The sections incubated with the secondary antibodies were stained with 3,3′-diaminobenzidine (DAB; Dako) for 3-7 minutes and then counterstained with Mayer's haematoxylin. All incubations were performed in a humid chamber. After the staining, images were taken and analyzed using a bright-field microscope (Nikon TE-2000U).

[3] = tested on: mice induced with metabolic dysfunction-associated steatohepatitis (MASH); test: Liver fibrosis score from collagen staining (Picrosirius red) in MASH mice; assay type: in vivo, C57BL/6N mice; details: 25 mg/kg/day orally for 4 weeks, mean±SD, normal group 0, MASH group 3.11
Method: as §1, §2, §3, §4
After preparing the 7 groups, the animals were euthanized using carbon dioxide and the liver tissues were extracted. The extracted tissues were fixed in 4% neutral paraformaldehyde and embedded in paraffin to prepare sections. The paraffin sections were cut to 4-μm thickness, deparaffinized, and then rehydrated. The hydrated sections were stained with a Weigert's iron hematoxylin solution for 8 minutes and then with Picrosirius red for 1 hour. Collagen fibers were stained red and nuclei were stained blue. The sections were photographed using a bright-field microscope (Nikon TE-2000U).
The main mechanism of nonalcoholic fatty liver disease is the induction of hepatic stellate cell activation, which induces collagen production and leads to liver fibrosis due to collagen accumulation. From the result of collagen staining (Picrosirius red) for observing the total amount of collagen deposition in Test Example 3-6, the liver fibrosis score was analyzed. Stages 2 to 3 were diagnosed as nonalcoholic fatty liver disease (MASH) (M. Brunt et al., 2005).
All quantitative data are presented as mean±standard deviation (SD). In each experiment, all measurements were made at least three times, and data were analyzed using the two-tailed, unpaired Student's t test. P values of <0.05 were considered statistically significant.

Row | IC50 [1] [µM] | Structure (SMILES) | activity at 1 µM (3T3-L1 pre-adipocytes) [%] | lipid droplet formation and lipid infiltration in liver, Oil Red O staining [2] | Degree of liver fibrosis (fibrosis score) [3] | Degree of liver fibrosis (fibrosis score) ([3]; listed as CK004)
1 | 0.0209 | CN1CCN(CCO/N=C2/C(=C3/C(=O)Nc4ccc(C#N)cc43)Nc3ccccc32)CC1 [Example 4, (2Z,3E)-3-((2-(4-methylpiperazin-1-yl)ethoxy)imino)-2′-oxo-[2,3′-biindolinylidene]-5′-carbonitrile] | 26 | a significant effect of inhibiting lipid infiltration at a level similar to that of the normal group (NCD) | 0.67 | 0.67
2 | 0.00554 | N#Cc1ccc2c(c1)/C(=C1/Nc3ccccc3/C1=N\OCCN1CCSCC1)C(=O)N2 [Example 3, (2Z,3E)-2′-oxo-3-((2-thiomorpholinoethoxy)imino)-[2,3′-biindolinylidene]-5′-carbonitrile] | 28.9 | a significant effect of inhibiting lipid infiltration at a level similar to that of the normal group (NCD) | 1.56 | –
3 | 0.00861 | N#Cc1ccc2c(c1)/C(=C1/Nc3ccccc3/C1=N\OCCN1CCOCC1)C(=O)N2 [Example 2, (2Z,3E)-3-((2-morpholinoethoxy)imino)-2′-oxo-[2,3′-biindolinylidene]-5′-carbonitrile] | 32.3 | the size and number of lipid droplets were significantly reduced | 1.85 | –
4 | 0.0193 | N#Cc1ccc2c(c1)/C(=C1/Nc3ccccc3/C1=N\OCCN1CCNCC1)C(=O)N2 [Example 1, (2Z,3E)-2′-oxo-3-((2-(piperazin-1-yl)ethoxy)imino)-[2,3′-biindolinylidene]-5′-carbonitrile] | 32.2 | the size and number of lipid droplets were significantly reduced | 2.00 | –
5 | 0.0261 | N#Cc1ccc2c(c1)/C(=C1/Nc3ccccc3/C1=N\OCCN1CC[S+]([O-])CC1)C(=O)N2 [Example 14, (2Z,3E)-3-((2-(1-oxidothiomorpholino)ethoxy)imino)-2′-oxo-[2,3′-biindolinidene]-5′-carbonitrile hydrochloride] | 26.8 | – | – | –
